Eight compounds from patent US12435072B2, “Compounds” (Vicore Pharma AB, priority 2019, dated 2025) can be followed below.

Where two headings read alike, the source gives them in different places.

One series deals with T1, CYP2D6 (Homo sapiens, UniProt P10635).
T1 construct: incubated with human liver microsomes; tissue Eurofins ITEMG232; host or cells: human liver microsomes
Kind of series: CYP inhibition in human liver microsomes, CYP2D6. As to conditions: probe dextromethorphan, substrate dextromethorphan, read-out: CYP2D6 Inh %. It is filed as in vitro ADME. The essentials:
(§1)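 Substrate is added to human liver microsomes (CYP2C8: paclitaxel, amodiaquine; CYP2C9: diclofenac; CYP2D6: dextromethorphan). The mixture is incubated. Product is then monitored by HPLC-MS/MS peak area.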

In the next series the target is T2, CYP2C19 (Homo sapiens, UniProt P33261).
T2 construct: incubated with human liver microsomes; tissue Eurofins ITEMG232; host or cells: human liver microsomes
T2 sequence (P33261 whole entry): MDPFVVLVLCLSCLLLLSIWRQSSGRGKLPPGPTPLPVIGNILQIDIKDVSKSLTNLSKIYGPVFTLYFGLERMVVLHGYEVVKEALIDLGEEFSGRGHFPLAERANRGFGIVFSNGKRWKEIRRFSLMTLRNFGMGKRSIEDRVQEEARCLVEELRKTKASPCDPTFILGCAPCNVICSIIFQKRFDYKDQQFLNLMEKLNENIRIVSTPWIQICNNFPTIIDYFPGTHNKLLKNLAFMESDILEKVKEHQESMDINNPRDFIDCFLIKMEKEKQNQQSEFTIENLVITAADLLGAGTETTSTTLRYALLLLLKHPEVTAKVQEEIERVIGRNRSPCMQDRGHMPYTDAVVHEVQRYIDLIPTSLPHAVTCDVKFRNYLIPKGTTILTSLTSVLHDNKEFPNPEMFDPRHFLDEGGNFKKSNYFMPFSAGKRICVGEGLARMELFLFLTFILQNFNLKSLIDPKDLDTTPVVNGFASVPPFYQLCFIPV
The series can be described thus: CYP inhibition in human liver microsomes, CYP2C19. It is filed as in vitro ADME. As to conditions: probe omeprazole, substrate omeprazole, read-out: CYP2C19 Inh %. As to the method:
(§2) The following substrates were used: CYP1A phenacetin, CYP2B6 bupropion, CYP2C8 paclitaxel and amodiaquine, CYP2C9 diclofenac, CYP2C19 omeprazole, CYP2D6 dextromethorphan, CYP3A midazolam and testosterone. At the end of the incubation, the formation of metabolite was monitored by HPLC-MS/MS as the peak area response.

Series [1] can be described thus: Metabolic stability in pooled human liver microsomes. It is filed as in vitro ADME. As to conditions: pooled human liver microsomes 0.5 mg/ml, 1 μM test compound, 37° C. As to the method: Pooled human liver microsomes in PBS at a concentration of 0.5 mg/ml was incubated with or without 1 mM NADPH for 70 min at 37° C. Test compound was added after 10 minutes to a final concentration of 1 μM. Samples were withdrawn at 0, 5, 15 and 60 minutes and added to test tubes containing acetonitrile, to stop the reaction, and with terfenadine, used as internal standard. After centrifugation at 10 000×g for 5 minutes the supernatant was diluted 1:1 with 1% formic acid. Samples were separated on a reverse phase column and detected by triple quadrupole MSMS (Agilant model 6540). The concentration of the parent compound at the different time points was measured with an external standard curve using terfenadine as internal standard and the initial metabolic rate in the presence or absence of NADPH calculated.
(Liver microsomes are vesicles of endoplasmic reticulum, rich in cytochrome P450 enzymes.)

Another series addresses CYP2C9 (Homo sapiens, UniProt P11712). The series can be described thus: CYP inhibition in human liver microsomes, CYP2C9. As to conditions: probe diclofenac, substrate diclofenac, read-out: CYP2C9 Inh %. It is filed as in vitro ADME. The arrangement: incubated with human liver microsomes; tissue Eurofins ITEMG232; host or cells: human liver microsomes. An outline of the steps: as §1

Another series has as its target T3, CYP1A (Homo sapiens, UniProt P05177).
T3 construct: incubated with human liver microsomes; tissue Eurofins ITEMG232; host or cells: human liver microsomes
T3 sequence (P05177 1-516): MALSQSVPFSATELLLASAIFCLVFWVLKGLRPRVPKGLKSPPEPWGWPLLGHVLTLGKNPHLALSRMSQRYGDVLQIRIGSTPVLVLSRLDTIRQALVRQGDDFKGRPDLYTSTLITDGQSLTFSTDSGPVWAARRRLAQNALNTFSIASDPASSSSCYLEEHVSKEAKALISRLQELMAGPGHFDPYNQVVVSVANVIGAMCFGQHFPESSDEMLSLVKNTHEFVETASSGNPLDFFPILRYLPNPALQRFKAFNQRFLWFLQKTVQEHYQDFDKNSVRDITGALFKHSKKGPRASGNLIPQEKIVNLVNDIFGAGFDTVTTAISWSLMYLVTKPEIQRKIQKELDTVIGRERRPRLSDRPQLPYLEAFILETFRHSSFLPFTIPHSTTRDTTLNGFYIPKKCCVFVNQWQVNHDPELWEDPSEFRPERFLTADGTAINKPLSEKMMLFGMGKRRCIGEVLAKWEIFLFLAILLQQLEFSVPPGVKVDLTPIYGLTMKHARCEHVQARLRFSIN
Kind of series: CYP inhibition in human liver microsomes, CYP1A. It is filed as in vitro ADME. The settings on record: probe phenacetin, substrate phenacetin, read-out: CYP1A Inh %. As to the method: as §2

For a further series, the target named is CYP3A4 (Homo sapiens, UniProt P08684). The series can be described thus: CYP inhibition in human liver microsomes, CYP3A4 (midazolam). It is filed as in vitro ADME. Also on record: incubated with human liver microsomes; tissue Eurofins ITEMG232; host or cells: human liver microsomes. As to conditions: probe midazolam, substrate midazolam, read-out: CYP3A4 midazolam Inh %. As to the method:
as §2

Series [2] has as its target T4, human recombinant AT1 receptor (Homo sapiens, UniProt P30556).
T4 construct: purchased Eurofins ITEM24
T4 sequence (P30556 1-359): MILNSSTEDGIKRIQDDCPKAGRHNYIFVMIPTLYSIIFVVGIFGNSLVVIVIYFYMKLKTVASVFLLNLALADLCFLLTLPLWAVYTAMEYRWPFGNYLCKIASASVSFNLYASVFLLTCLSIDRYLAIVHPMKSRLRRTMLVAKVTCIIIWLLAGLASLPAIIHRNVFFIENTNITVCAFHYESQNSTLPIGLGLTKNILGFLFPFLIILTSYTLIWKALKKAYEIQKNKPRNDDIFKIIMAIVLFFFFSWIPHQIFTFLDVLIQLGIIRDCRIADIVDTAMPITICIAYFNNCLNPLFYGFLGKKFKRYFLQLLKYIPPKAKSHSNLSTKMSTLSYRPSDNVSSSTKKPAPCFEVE
Kind of series: Binding to AT1 receptor, radiometric scintillation assay (Eurofins). As to conditions: ligand 125I(sar1,Ile8)-AT-II, tested at 1 and 10 μM. As to the method: Compounds were evaluated for binding to the human recombinant AT2 and AT1 receptor according to Eurofins protocol ITEM26 and ITEM24 using a radiometric scintillation assay.

Another series addresses T5, CYP2C8 (Homo sapiens, UniProt P10632).
T5 construct: incubated with human liver microsomes; tissue Eurofins ITEMG232; host or cells: human liver microsomes
T5 sequence (P10632 1-490): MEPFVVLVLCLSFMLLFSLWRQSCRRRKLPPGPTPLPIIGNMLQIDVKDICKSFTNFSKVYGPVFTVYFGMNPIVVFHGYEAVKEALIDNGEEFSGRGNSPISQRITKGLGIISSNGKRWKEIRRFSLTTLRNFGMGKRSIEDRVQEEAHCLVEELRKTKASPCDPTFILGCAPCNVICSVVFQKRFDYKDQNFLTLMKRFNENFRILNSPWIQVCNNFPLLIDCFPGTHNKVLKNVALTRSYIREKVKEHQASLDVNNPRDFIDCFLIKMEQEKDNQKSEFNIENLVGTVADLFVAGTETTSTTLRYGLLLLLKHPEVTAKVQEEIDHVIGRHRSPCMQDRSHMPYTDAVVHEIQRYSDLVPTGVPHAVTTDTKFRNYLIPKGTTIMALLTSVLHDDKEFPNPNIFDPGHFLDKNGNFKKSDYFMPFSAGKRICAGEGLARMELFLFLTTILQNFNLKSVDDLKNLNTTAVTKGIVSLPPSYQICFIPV
The series can be described thus: CYP inhibition in human liver microsomes, CYP2C8. As to conditions: probe paclitaxel and amodiaquine, substrate paclitaxel and amodiaquine, read-out: CYP2C8 Inh %. It is filed as in vitro ADME. An outline of the steps: as §1

For a further series, the system named is CYP3A4&5. Kind of series: CYP inhibition in human liver microsomes, CYP3A4&5 (testosterone). It is filed as in vitro ADME. The settings on record: probe testosterone, substrate testosterone, read-out: CYP3A4&5 testosterone Inh %. As to the method: as §2
Setting [3] is: with 1 mM NADPH, read-out: T1/2, + NaDPH.
Where [4] appears, read: without NADPH, read-out: T1/2, no NaDPH.

Sequence of CYP2C9 (P11712 whole entry): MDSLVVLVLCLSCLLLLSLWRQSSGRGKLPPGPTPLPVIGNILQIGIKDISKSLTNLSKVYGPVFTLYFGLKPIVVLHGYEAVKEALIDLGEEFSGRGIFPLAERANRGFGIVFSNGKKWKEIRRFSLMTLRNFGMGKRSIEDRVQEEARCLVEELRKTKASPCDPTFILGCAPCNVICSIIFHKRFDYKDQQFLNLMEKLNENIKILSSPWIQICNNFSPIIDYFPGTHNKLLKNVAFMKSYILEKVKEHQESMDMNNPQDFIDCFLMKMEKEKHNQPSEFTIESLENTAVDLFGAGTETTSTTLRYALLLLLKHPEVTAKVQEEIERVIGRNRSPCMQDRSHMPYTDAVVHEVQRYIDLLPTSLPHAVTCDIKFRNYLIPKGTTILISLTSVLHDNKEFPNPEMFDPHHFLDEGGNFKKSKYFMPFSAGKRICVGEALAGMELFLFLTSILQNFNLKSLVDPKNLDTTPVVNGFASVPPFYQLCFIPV
T1 sequence (P10635 whole entry): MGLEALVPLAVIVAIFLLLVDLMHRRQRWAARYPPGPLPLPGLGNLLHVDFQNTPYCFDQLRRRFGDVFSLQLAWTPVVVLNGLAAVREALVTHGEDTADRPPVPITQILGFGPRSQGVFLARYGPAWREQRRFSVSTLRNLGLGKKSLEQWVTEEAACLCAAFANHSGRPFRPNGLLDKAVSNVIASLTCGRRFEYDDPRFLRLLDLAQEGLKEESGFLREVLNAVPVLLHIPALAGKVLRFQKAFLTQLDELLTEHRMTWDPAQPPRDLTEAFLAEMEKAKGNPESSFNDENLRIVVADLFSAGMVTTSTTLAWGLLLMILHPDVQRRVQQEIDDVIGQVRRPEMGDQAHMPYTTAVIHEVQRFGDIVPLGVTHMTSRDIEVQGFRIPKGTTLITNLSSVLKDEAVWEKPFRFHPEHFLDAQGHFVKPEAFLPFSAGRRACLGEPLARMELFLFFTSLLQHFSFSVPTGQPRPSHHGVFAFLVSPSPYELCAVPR
Sequence of CYP3A4 (P08684 whole entry): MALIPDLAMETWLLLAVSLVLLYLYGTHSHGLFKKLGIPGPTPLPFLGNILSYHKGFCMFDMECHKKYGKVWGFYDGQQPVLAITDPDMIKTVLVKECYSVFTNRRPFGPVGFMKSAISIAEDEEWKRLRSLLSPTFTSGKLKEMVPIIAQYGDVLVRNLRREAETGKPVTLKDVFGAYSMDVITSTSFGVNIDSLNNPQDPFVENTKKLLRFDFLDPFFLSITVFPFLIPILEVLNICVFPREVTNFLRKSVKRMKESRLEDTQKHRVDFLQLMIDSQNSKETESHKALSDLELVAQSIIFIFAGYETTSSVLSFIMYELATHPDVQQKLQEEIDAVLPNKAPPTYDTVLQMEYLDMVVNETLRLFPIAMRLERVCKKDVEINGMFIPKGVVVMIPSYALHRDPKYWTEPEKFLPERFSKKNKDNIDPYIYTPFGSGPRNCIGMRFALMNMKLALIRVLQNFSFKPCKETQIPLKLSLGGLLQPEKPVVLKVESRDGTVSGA

A word on the IC50: it is the concentration that gives 50% inhibition. Take `Cc1nccn1Cc1ccc(-c2cc(CC(C)C)sc2S(=O)(=O)NC(=O)NCc2ccccc2)cc1` [Example 1, 1-benzyl-3-[[5-isobutyl-3-[4-[(2-methylimidazol-1-yl)methyl]phenyl]-2-thienyl]sulfonyl]urea]: the inhibition at 10 µM at CYP2D6 was 14.3%; at CYP2C19 it was 59.1%; on CYP2C9, 49.7%; on CYP1A, 7.3%; on CYP3A4, 41.3%; on CYP2C8 it was 40%. Further, in the series on CYP3A4&5, the inhibition at 10 µM is 21.4%. Further, the half-life at 1 μM in series [1] (setting [3]) is 0.4 h; in series [1] (setting [4]) it was more than 1 h. In addition, the IC50 in series [2] is more than 1 µM.
Regarding `Cc1nccn1Cc1ccc(-c2cc(CC(C)C)sc2S(=O)(=O)NC(=O)NCc2ccccn2)cc1` [Example 2, 3-(5-isobutyl-3-{p-[(2-Methyl-1H-imidazol-1-yl)methyl]phenyl}-2-thienylsulfonyl)-1-[(2-pyridyl)methyl]urea], the inhibition at 10 µM at CYP2D6 was determined as 8.6%; at CYP2C19 it was 35.4%; on CYP2C9, 30.4%; at CYP1A, 5%; on CYP3A4 it was 22.1%; on CYP2C8, 52.8%. For the same compound, the inhibition at 10 µM in the series on CYP3A4&5 turned out to be 0.3%. The half-life at 1 μM in series [1] (setting [3]) and in [1] (setting [4]) was more than 1 h each time. Also, the 50% inhibitory concentration (IC50) in [2] is more than 10 µM.
With `CCCCNC(=O)NS(=O)(=O)c1sc(CC(C)C)cc1-c1ccc(Cn2ccnc2C)cc1` [Example 4, 1-Butyl-3-(5-isobutyl-3-{p-[(2-methyl-1H-imidazol-1-yl)methyl]phenyl}-2-thienylsulfonyl)-urea], the inhibition at 10 µM at CYP2D6 worked out at 7.7%; at CYP2C19, 37.5%; at CYP2C9, 31.3%; at CYP1A, 10.5%; on CYP3A4, 17.1%; at CYP2C8, 47.2%. In the series with CYP3A4&5, the inhibition at 10 µM turned out to be 8.2%. For the same compound, the half-life at 1 μM in series [1] (setting [3]) is 0.65 h; in series [1] (setting [4]), more than 1 h. Also, the half-inhibitory concentration (IC50) in series [2] is more than 10 µM.
For `Cc1nccn1Cc1ccc(-c2cc(CC(C)C)sc2S(=O)(=O)NC(=O)NCCCC(F)(F)F)cc1` [Example 5, 3-(5-isobutyl-3-{p-[(2-Methyl-1H-imidazol-1-yl)methyl]phenyl}-2-thienylsulfonyl)-1-(4,4,4-trifluorobutyl)-urea], the inhibition at 10 µM at CYP2D6 is 13.2%; on CYP2C19 it was 50.4%; at CYP2C9, 27.9%; on CYP1A it was 7.3%; at CYP3A4, 26.7%; at CYP2C8, 49.3%. In the series on CYP3A4&5, the inhibition at 10 µM was 14.7%. For the same compound, the half-life at 1 μM in series [1] (setting [3]) was 0.417 h; in series [1] (setting [4]), more than 1 h. Besides, in series [2], the IC50 was more than 10 µM.
Regarding `CCc1nccn1Cc1ccc(-c2cc(CC(C)C)sc2S(=O)(=O)NC(=O)NCc2ccccc2)cc1` [Example 6, 1-Benzyl-3-(3-{p-[(2-ethyl-1H-imidazol-1-yl)methyl]phenyl}-5-isobutyl-2-thienylsulfonyl)-urea], the inhibition at 10 µM on CYP2D6 was 27.3%; at CYP2C19, 57%; on CYP2C9, 51.4%; at CYP1A, 6.8%; at CYP3A4 it was 28.5%; on CYP2C8, 76.2%. In addition, in the series with CYP3A4&5, the inhibition at 10 µM was determined as 13.2%. Moreover, the half-life at 1 μM in series [1] (setting [3]) was 0.4 h; in [1] (setting [4]), more than 1 h. For the same compound, the IC50 in series [2] is more than 1 µM.
As to `CCc1nccn1Cc1ccc(-c2cc(CC(C)C)sc2S(=O)(=O)NC(=O)NCCOC)cc1` [Example 7, 3-(3-{p-[(2-Ethyl-1H-imidazol-1-yl)methyl]phenyl}-5-isobutyl-2-thienylsulfonyl)-1-(2-methoxy-ethyl)urea], the inhibition at 10 µM is 3.2% on CYP2D6; 37.9% on CYP2C19; 10.2% on CYP2C9; 10.6% on CYP1A; 10.1% at CYP3A4; 38.6% on CYP2C8. The inhibition at 10 µM in the series on CYP3A4&5 turned out to be 3%. Besides, the half-life at 1 μM in [1] (setting [3]) and in [1] (setting [4]) was more than 1 h in each case. In addition, in [2], the IC50 was more than 10 µM.
Consider `Cc1nccn1Cc1ccc(-c2cc(CC(C)C)sc2S(=O)(=O)NC(=O)NCc2ccccn2)cc1F` [Example 13, 3-(3-{3-Fluoro-4-[(2-methyl-1H-imidazol-1-yl)methyl]phenyl}-5-isobutyl-2-thienylsulfonyl)-1-[(2-pyridyl)methyl]urea], for which the inhibition at 10 µM is 12% on CYP2D6; 40% at CYP2C19; 32% at CYP2C9; 16% on CYP1A; 80% at CYP3A4; 77% at CYP2C8. In addition, in the series on CYP3A4&5, the inhibition at 10 µM was 9%. For the same compound, the half-life at 1 μM in series [1] (setting [3]) and in [1] (setting [4]) was more than 1 h each time. Further, the IC50 in series [2] is 26 µM.
For the compound `Cc1nccn1Cc1ccc(-c2cc(CC(C)C)sc2S(=O)(=O)NC(=O)NCCC(F)(F)F)cc1F` [Example 14, 3-(3-{3-Fluoro-4-[(2-methyl-1H-imidazol-1-yl)methyl]phenyl}-5-isobutyl-2-thienylsulfonyl)-1-(3,3,3-trifluoropropyl)urea], the inhibition at 10 µM at CYP2D6 is 30%; on CYP2C19, 62%; on CYP2C9 it was 65%; on CYP1A, 13%; at CYP3A4, 30%; on CYP2C8, 78%. In addition, the inhibition at 10 µM in the series with CYP3A4&5 is 33%. Moreover, the half-life at 1 μM was 1.5 h in series [1] (setting [3]) and more than 1 h in [1] (setting [4]). In addition, in series [2], the half-inhibitory concentration (IC50) was found to be 25 µM.
